Measurements as given in US8946439B2, “Amide compounds, compositions and uses thereof” (Evotec AG, priority 2008, dated 2015).
Like-named read-outs stand apart in the source and are kept apart here.

Assays:
[1] = biological target: T1, hP2X2/3H (Homo sapiens, UniProt P56373+Q9UBL9); assay: Calcium uptake assay (P2X antagonist assay), P2X2/3 heteromer; format: cell-based; settings: hP2X2/3H
T1 construct: expressed in transfected cells; host or cells: e.g. HEK293 or 1321N1
T1 sequence (Q9UBL9 1-471): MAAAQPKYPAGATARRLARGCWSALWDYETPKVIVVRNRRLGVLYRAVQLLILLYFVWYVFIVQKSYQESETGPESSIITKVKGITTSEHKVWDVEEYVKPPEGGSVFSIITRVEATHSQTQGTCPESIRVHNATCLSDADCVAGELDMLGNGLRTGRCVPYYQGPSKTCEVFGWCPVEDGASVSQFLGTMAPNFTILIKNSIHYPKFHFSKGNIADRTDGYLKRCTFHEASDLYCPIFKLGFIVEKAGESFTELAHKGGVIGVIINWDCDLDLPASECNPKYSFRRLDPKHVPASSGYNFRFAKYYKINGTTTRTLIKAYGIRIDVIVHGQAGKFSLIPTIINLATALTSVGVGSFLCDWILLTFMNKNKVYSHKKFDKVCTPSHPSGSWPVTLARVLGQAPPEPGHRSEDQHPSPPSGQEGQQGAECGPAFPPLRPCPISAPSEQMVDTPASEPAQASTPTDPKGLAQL
T1 sequence (P56373 1-397): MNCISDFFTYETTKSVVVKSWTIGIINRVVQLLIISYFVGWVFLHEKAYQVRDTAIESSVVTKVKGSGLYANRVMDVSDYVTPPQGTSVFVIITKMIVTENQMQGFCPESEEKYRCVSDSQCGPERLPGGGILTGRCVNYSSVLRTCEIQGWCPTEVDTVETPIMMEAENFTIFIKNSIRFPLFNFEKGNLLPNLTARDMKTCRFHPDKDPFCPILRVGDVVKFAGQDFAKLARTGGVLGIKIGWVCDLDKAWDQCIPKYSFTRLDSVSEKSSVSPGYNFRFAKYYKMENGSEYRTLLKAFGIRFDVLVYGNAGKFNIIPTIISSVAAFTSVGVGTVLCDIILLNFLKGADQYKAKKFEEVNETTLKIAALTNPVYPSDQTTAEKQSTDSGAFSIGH
In short: (§1)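 Stably or transiently transfected HEK293 or 1321N1 cells; the heteromer is made by adding P2X3 to a P2X2-stable line, with heteromer function isolated pharmacologically. The peak-minus-baseline FLIPR calcium signal gives % inhibition and a 4-parameter-logistic IC50.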

[2] = biological target: T2, hP2X3 (Homo sapiens, UniProt P56373); assay: Calcium uptake assay (P2X antagonist assay), P2X3 homomer; format: cell-based; settings: hP2X3
T2 construct: expressed in transfected cells; host or cells: e.g. HEK293 or 1321N1
T2 sequence (P56373 1-397): T1 sequence (P56373 1-397)
In short: as §1

[3] = calcium uptake assay, read-out: IC50 hP2X2/3H (nM), Ca Influx
[4] = calcium uptake assay, read-out: IC50 hP2X3 (nM), Ca Influx
[5] = Ca influx (calcium uptake assay), read-out: IC50 hP2X2/3H
[6] = Ca influx (calcium uptake assay), read-out: IC50 hP2X3

Structure (SMILES) | IC50 [1, 3] | IC50 [2, 4] | IC50 [1, 5] | IC50 [2, 6]
Cc1ccc(-c2cc(C(=O)NCc3ccc(C)nc3)cc(C(=O)N3C4CCC3CC4)c2)cc1 [Compound 193] | < 100 nM | < 100 nM | – | –
Cc1ccc(-c2cc(C(=O)NCc3cnc(C)nc3)cc(C(=O)N3CCC3)c2)cc1 [Compound 30] | < 100 nM | < 100 nM | – | –
Cc1ccc(CNC(=O)c2cc(-c3ccc(Cl)cc3)cc(S(C)(=O)=O)c2)cn1 [Compound 138] | 100 to 500 nM | 100 to 500 nM | – | –
Cc1ccc(-c2cc(OC3COCC3O)cc(C(=O)N[C@H](C)c3cnc(C)nc3)c2)c(C#N)c1 (stereo partly drawn) [Compound 363] | – | – | < 100 nM | < 100 nM
COc1ccc(CNC(=O)c2cc(C(=O)N3CCCC3)cc(-c3ccc(C)cc3)c2)cn1 [Compound 152] | < 100 nM | < 100 nM | – | –
COc1ncc(CNC(=O)c2cc(C(=O)N3CCCC3)cc(-c3ccc(C)cc3)c2)cn1 [Compound 48] | < 100 nM | < 100 nM | – | –
Cc1ccc(CNC(=O)c2cc(-c3ccc(Cl)c(C(F)(F)F)c3)cc(S(C)(=O)=O)c2)cn1 [Compound 139] | > 1000 nM | > 1000 nM | – | –
CCC(O)c1cc(C(=O)N[C@H](C)c2ccc(C)nc2)cc(-c2ccc(C)cc2)c1 (stereo partly drawn) [Compound 379] | – | – | < 100 nM | < 100 nM
Cc1ccc(-c2cc(C(=O)NCc3ccc(C)[n+]([O-])c3)cc(C(O)CN3CCCC3)c2)cc1 (stereo not drawn) [Compound 208] | – | – | 100 to 500 nM | < 100 nM
Cc1ccc(-c2cc(Oc3nc(Cl)cs3)cc(C(=O)N[C@H](C)c3ccc(C)nc3)c2)c(C#N)c1 [Compound 395] | – | – | < 100 nM | < 100 nM
CCS(=O)(=O)c1cc(C(=O)N[C@H](C)c2ccc(C)nc2)cc(-c2ccc(C)cc2)c1 [Compound 209] | – | – | < 100 nM | < 100 nM
COc1ccc([C@@H](CO)NC(=O)c2cc(C(=O)N(C)CC(C)C)cc(-c3ccc(C)cc3)c2)cn1 [Compound 7, (S)—N3-(2-hydroxy-1-(6-methoxypyridin-3-yl)ethyl)-N5-isobutyl-N5,4′-dimethyl-biphenyl-3,5-dicarboxamide] | 100 to 500 nM | 100 to 500 nM | – | –
CCN(CC)CC(O)c1cc(C(=O)N[C@H](C)c2ccc(C)nc2)cc(-c2ccc(C)cc2C#N)c1 (stereo partly drawn) [Compound 343] | – | – | 100 to 500 nM | < 100 nM
Cc1ccc(-c2cc(C(=O)NC(C)c3ccc(Cl)c(S(C)(=O)=O)c3)cc(C(=O)N3CCCC3)c2)cc1 (stereo not drawn) [Compound 45, N-(1-(4-Chloro-3-(methylsulfonyl)phenyl)ethyl)-4′-methyl-5-(pyrrolidine-1-carbonyl)biphenyl-3-carboxamide] | < 100 nM | 100 to 500 nM | – | –
Cc1ccc(-c2cc(C(=O)NCc3ccc(C)nc3)cc(C(=O)N3CCC(N4CCOCC4)C3)c2)cc1 (stereo not drawn) [Compound 86, 4′-Methyl-N-((6-methylpyridin-3-yl)methyl)-5-(3-morpholinopyrrolidine-1-carbonyl)biphenyl-3-carboxamide] | 100 to 500 nM | 100 to 500 nM | – | –
Cc1ccc(-c2cc(C(=O)N[C@H](C)c3ccc(C)nc3)cc(S(=O)(=O)CC(C)C)c2)cc1 [Compound 196] | < 100 nM | 100 to 500 nM | – | –
Cc1ccc(-c2cc(Oc3nc(C)cs3)cc(C(=O)N[C@H](C)c3ccc(C)nc3)c2)cc1 [Compound 381] | – | – | < 100 nM | < 100 nM
Cc1ccc(-c2cc(C(=O)NCc3cnc(C)nc3)cc(C(=O)N3CCCCCC3)c2)cc1 [Compound 19, 5-(Azepane-1-carbonyl)-4′-methyl-N-((2-methylpyrimidin-5-yl)methyl)biphenyl-3-carboxamide] | < 100 nM | < 100 nM | – | –
Cc1ccc(-c2cc(C(=O)N[C@H](C)c3ccc(C(F)(F)F)nc3)cc(C(=O)N3CCC3)c2)cc1 [Compound 75] | < 100 nM | < 100 nM | – | –
Cc1ccc(-c2cc(C(=O)NCc3ccc(Cl)nc3)cc(C(=O)N(C)CC(C)C)c2)cc1 [Compound 9, N3-((6-Chloropyridin-3-yl)methyl)-N5-isobutyl-N5,4′-dimethylbiphenyl-3,5-dicarboxamide] | < 100 nM | < 100 nM | – | –
Cc1ccc(-c2cc(OCC3CCCO3)cc(C(=O)N[C@H](C)c3ccc(C)nc3)c2)c(C#N)c1 (stereo partly drawn) [Compound 312] | – | – | < 100 nM | < 100 nM
